Laboratory results: patent US20150175599A1, “FAAH Inhibitors” (Ironwood Pharmaceuticals, Inc., priority 2010, published 2015)

Legend:
[1] = molecular target: T1, FAAH (Homo sapiens, UniProt O00519); assay: FAAH inhibition, human brain membrane homogenate assay; assay type: biochemical; details: human brain homogenate; average activity; read-out: Human brain Extract FAAH IC50
T1 construct: Reactions were initiated by adding 12.5 μg of brain microsome; tissue ABS, Inc; host or cells: human brain cerebral cortex, membrane/microsome fraction pooled from 3 donors
T1 sequence (O00519 1-579): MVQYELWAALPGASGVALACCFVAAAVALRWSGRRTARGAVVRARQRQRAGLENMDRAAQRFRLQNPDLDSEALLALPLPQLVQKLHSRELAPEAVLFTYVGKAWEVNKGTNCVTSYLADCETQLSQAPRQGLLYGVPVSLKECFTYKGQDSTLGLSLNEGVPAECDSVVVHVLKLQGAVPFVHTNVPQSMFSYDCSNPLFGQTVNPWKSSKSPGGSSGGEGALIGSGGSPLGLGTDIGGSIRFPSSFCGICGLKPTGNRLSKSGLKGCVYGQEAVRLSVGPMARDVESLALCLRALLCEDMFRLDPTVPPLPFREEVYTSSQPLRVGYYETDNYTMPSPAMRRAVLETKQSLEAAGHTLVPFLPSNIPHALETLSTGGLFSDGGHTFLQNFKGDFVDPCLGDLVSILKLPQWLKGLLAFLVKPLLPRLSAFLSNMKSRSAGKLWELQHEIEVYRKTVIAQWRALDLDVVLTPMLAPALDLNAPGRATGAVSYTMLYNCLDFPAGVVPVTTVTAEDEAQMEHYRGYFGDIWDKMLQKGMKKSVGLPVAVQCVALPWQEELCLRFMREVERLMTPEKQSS

[2] = molecular target: T2, hERG channel (Homo sapiens, UniProt Q12809); assay: hERG channel inhibition, automated patch clamp (IonWorks HT, hERG-CHO); assay type: cell-based; details: CHO cells expressing hERG, 600 s incubation; for inhibition at 600 s, 1 µM: 1 μM compound, read-out: hERG Channel Inhibition % (at 1 μM), vehicle-subtracted values; for inhibition at 600 s, 10 µM: 10 μM compound, read-out: hERG Channel Inhibition % (at 10 μM), vehicle-subtracted values
T2 construct: expressed in transfected cells; host or cells: CHO (hERG-CHO), under Geneticin selection
T2 sequence (Q12809 whole entry): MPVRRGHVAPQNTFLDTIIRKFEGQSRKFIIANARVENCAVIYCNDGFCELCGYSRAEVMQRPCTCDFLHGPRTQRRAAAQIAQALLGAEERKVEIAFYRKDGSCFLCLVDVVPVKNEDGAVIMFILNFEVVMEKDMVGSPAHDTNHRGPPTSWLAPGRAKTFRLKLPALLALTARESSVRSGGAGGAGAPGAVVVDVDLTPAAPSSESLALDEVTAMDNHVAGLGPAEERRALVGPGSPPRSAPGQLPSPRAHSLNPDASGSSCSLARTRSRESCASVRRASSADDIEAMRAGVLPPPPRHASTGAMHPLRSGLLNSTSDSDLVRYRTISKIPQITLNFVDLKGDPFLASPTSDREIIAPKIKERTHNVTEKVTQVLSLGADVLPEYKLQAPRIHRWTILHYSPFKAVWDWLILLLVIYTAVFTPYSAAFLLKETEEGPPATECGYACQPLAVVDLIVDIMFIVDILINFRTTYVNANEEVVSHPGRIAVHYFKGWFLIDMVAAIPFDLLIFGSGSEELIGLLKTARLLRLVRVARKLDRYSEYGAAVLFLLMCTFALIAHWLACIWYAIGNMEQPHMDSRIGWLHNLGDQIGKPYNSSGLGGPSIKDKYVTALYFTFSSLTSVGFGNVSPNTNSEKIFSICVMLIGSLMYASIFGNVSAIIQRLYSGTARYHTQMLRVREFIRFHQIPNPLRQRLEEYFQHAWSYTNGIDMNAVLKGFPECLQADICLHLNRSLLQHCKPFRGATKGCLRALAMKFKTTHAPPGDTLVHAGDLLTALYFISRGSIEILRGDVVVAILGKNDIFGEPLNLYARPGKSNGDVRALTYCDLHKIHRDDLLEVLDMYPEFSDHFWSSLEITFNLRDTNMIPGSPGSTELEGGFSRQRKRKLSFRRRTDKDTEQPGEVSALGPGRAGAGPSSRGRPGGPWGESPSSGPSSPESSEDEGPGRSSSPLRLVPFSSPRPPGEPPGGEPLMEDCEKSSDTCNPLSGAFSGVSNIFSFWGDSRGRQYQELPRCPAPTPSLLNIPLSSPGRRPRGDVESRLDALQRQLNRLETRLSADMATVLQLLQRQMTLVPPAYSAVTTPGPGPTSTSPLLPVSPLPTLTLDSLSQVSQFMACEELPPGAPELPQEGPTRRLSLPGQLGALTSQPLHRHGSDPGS
Description: Human ether-a-gogo-related (hERG) ion channel encodes the inward rectifying voltage gated potassium channel in the heart and has a major role during the repolarization of the cardiac action potential. It is well established that blockade of this ion channel can lead to potentially lethal arrhythmias. hERG pre-clinical safety data is often used by regulatory agencies in elucidate the toxicity profile of certain compositions. The disclosed compounds of Table 1 were tested for their ability to inhibit hERG ion channels.
Media components include F12 Nutrient Mixture (Ham) with GlutaMAX™ (Invitrogen, Cat#31765), Fetal Bovine Serum, Certified (Invitrogen, Cat#16000-044—not heat activated), and Geneticin® Selective Antibiotic (Invitrogen, Cat#10131-027).
One vial of frozen cells, at 1.62×10^6 cells are thawed into a T150 flask (BD Falcon 355001) with 40 mL of pre-warmed complete media. Cells are cultured at 37° C., 5% CO2 for four hours prior to gently changing media. 99% of cells appear attached at this time point.
The flask is media changed at 24 hours post-thaw, the cells are imaged, media changed, and returned to the incubator. At this point, the cells appear healthy and about 25% confluent in the flask. Cells are typically passed 24-48 hours after thaw according to the following intervals and densities below. Cells are incubated at 30° C. for 48 hours prior to assay.
Using an automated patch clamp apparatus (IonWorks^HT), a three pulse protocol was applied by stepping from a holding potential of −80 mV to […] for 2 s, to activate hERG channels. The membrane voltage was then stepped back to −50 mV for 2 s to evoke a tail current prior to returning to the holding potential for 1 s. This sequence was repeated a further two times. This voltage protocol was applied prior to drug (Pre compound) and after 600 s in the presence of drug (Post compound).
The amplitude of the hERG tail current was calculated by measuring the difference between the maximum current on stepping to −50 mV of the third pulse (i.e. peak of the outward hERG tail current) and the current measured immediately prior to activation of any hERG current. This parameter was assessed before (pre tail current amplitude) and after 600 s incubation (post tail current amplitude) in drug. In order to assess the amount of block produced by test compounds, the data was first filtered using the IonWorks™ software to exclude any cells where the seal resistance was less than 50 MOhm. The remaining data was then exported to an excel compatible data file and only currents with tail currents greater than 250 pA were analyzed. The post/pre tail current amplitude ratio for the third pulse was calculated for each drug and control, and presented as percent inhibition.

| SMILES | IC50 [1] [µM] | inhibition at 600 s, 1 µM [2] [%] | inhibition at 600 s, 10 µM [2] [%] |
| --- | --- | --- | --- |
| COc1cc(NC(=O)C(=O)c2c(C)n(Cc3ccc(Cl)cc3)c3ccc(C(=O)N(C)C)cc23)ccn1 [Compound 6, 1-(4-chlorobenzyl)-3-(2-(2-methoxypyridin-4-ylamino)-2-oxoacetyl)-N,N,2-trimethyl-1H-indole-5-carboxamide] | 0.1 to 1 | < 25 | < 25 |
| COc1cc(NC(=O)C(=O)c2c(C)n(Cc3ccc(Cl)cc3)c3ccc(N(C)C(=O)OC(C)(C)C)cc23)ccn1 [Compound 7, Tert-butyl(1-(4-chlorobenzyl)-3-(2-((2-methoxypyridin-4-yl)amino)-2-oxoacetyl)-2-methyl-1H-indol-5-yl)(methyl)carbamate] | 0.1 to 1 | < 25 | < 25 |
| COc1ccc2c(c1)c(C(=O)C(=O)Nc1ccnc(OC)c1)c(C)n2Cc1ccncc1 [Compound 16, 2-(5-methoxy-2-methyl-1-(pyridin-4-ylmethyl)-1H-indol-3-yl)-N-(2-methoxypyridin-4-yl)-2-oxoacetamide] | 0.1 to 1 | < 25 | < 25 |
| CCN(CC)c1ccc2c(c1)c(C(=O)C(=O)Nc1ccnc(OC)c1)c(C)n2Cc1ccc(Cl)cc1 [Compound 24, 2-(1-(4-chlorobenzyl)-5-(diethylamino)-2-methyl-1H-indol-3-yl)-N-(2-methoxypyridin-4-yl)-2-oxoacetamide] | 1 to 10 |  |  |
| CNCc1ccc2c(c1)c(C(=O)C(=O)Nc1ccnc(OC)c1)c(C)n2Cc1ccc(Cl)cc1 [Compound 25, 2-(1-(4-chlorobenzyl)-2-methyl-5-((methylamino)methyl)-1H-indol-3-yl)-N-(2-methoxypyridin-4-yl)-2-oxoacetamide] | 0.1 to 1 |  |  |
| COc1cc(NC(=O)C(=O)c2c(C)n(Cc3ccc(Cl)cc3)c3ccc(CN(C)C)cc23)ccn1 [Compound 26, 2-(1-(4-chlorobenzyl)-5-((dimethylamino)methyl)-2-methyl-1H-indol-3-yl)-N-(2-methoxypyridin-4-yl)-2-oxoacetamide] | 0.1 to 1 |  |  |
| C=Cc1ccc2c(c1)c(C(=O)C(=O)Nc1ccnc(OC)c1)c(C)n2Cc1ccc(Cl)cc1 [Compound 27, 2-(1-(4-chlorobenzyl)-2-methyl-5-vinyl-1H-indol-3-yl)-N-(2-methoxypyridin-4-yl)-2-oxoacetamide] | < 0.1 |  |  |
| COc1cc(NC(=O)C(=O)c2c(C)n(Cc3ccc(Cl)cc3)c3cnccc23)ccn1 [Compound 35, 2-(1-(4-chlorobenzyl)-2-methyl-1H-pyrrolo[2,3-c]pyridin-3-yl)-N-(2-methoxypyridin-4-yl)-2-oxoacetamide] | 0.1 to 1 |  |  |
| COc1ccc2c(c1)c(C(=O)C(=O)Nc1ccnc(OC)c1)c(C)n2Cc1ccc(S(C)(=O)=O)cc1 [Compound 39, 2-(5-methoxy-2-methyl-1-(4-(methylsulfonyl)benzyl)-1H-indol-3-yl)-N-(2-methoxypyridin-4-yl)-2-oxoacetamide] | 1 to 10 |  |  |
| COc1ccc(Cn2c(C)c(C(=O)C(=O)Nc3ccnc(OC)c3)c3cc(OC)cnc32)nc1 [Compound 40, 2-(5-methoxy-1-((5-methoxypyridin-2-yl)methyl)-2-methyl-1H-pyrrolo[2,3-b]pyridin-3-yl)-N-(2-methoxypyridin-4-yl)-2-oxoacetamide] | < 0.1 | < 25 | < 25 |
| COc1ccc2c(c1)c(C(=O)C(=O)Nc1ccnc(O)c1)c(C)n2Cc1ccc(Cl)cc1 [Compound 50, 2-(1-(4-chlorobenzyl)-5-methoxy-2-methyl-1H-indol-3-yl)-N-(2-hydroxypyridin-4-yl)-2-oxoacetamide] | 1 to 10 |  |  |
| COc1cc(NC(=O)C(=O)c2c(C)n(Cc3ccc(Cl)cc3)c3c(OC)cccc23)ccn1 [Compound 51, 2-(1-(4-chlorobenzyl)-7-methoxy-2-methyl-1H-indol-3-yl)-N-(2-methoxypyridin-4-yl)-2-oxoacetamide] | 0.1 to 1 | < 25 | < 25 |
| COc1ccc2c(c1)c(C(=O)C(=O)Nc1ccnc(OC)c1Cl)c(C)n2Cc1ccc(Cl)cc1 [Compound 52, N-(3-chloro-2-methoxypyridin-4-yl)-2-(1-(4-chlorobenzyl)-5-methoxy-2-methyl-1H-indol-3-yl)-2-oxoacetamide] | > 10 | < 25 | < 25 |
| COc1ccc2c(c1)c(C(=O)C(=O)Nc1ccnc(OC)c1F)c(C)n2Cc1ccc(Cl)cc1 [Compound 53, 2-(1-(4-chlorobenzyl)-5-methoxy-2-methyl-1H-indol-3-yl)-N-(3-fluoro-2-methoxypyridin-4-yl)-2-oxoacetamide] | 0.1 to 1 | < 25 | < 25 |
| COc1cc(NC(=O)C(=O)c2c(C)n(Cc3ccc(Cl)cc3)c3ccc(OC)c(OC)c23)ccn1 [Compound 56, 2-(1-(4-chlorobenzyl)-4,5-dimethoxy-2-methyl-1H-indol-3-yl)-N-(2-methoxypyridin-4-yl)-2-oxoacetamide] | 0.1 to 1 |  |  |
| COc1cc(NC(=O)C(=O)c2c(C)n(Cc3ccc(Cl)cc3)c3ccc(OC)c(Cl)c23)ccn1 [Compound 58, 2-(4-chloro-1-(4-chlorobenzyl)-5-methoxy-2-methyl-1H-indol-3-yl)-N-(2-methoxypyridin-4-yl)-2-oxoacetamide] | < 0.1 |  |  |
| COc1cc(NC(=O)C(=O)c2c(C)n(Cc3ccc(Cl)cn3)c3ccc([N+](=O)[O-])cc23)ccn1 [Compound 62, 2-(1-((5-chloropyridin-2-yl)methyl)-2-methyl-5-nitro-1H-indol-3-yl)-N-(2-methoxypyridin-4-yl)-2-oxoacetamide] | < 0.1 |  |  |
| COc1cc(NC(=O)C(=O)c2c(C)n(Cc3ccc(Cl)cn3)c3ccc(N)cc23)ccn1 [Compound 65, 2-(5-amino-1-((5-chloropyridin-2-yl)methyl)-2-methyl-1H-indol-3-yl)-N-(2-methoxypyridin-4-yl)-2-oxoacetamide] | 0.1 to 1 |  |  |
| COc1cc(NC(=O)C(=O)c2c(C)n(Cc3ccc(Cl)cc3)c3ccc(N)c(Cl)c23)ccn1 [Compound 73, 2-(5-amino-4-chloro-1-(4-chlorobenzyl)-2-methyl-1H-indol-3-yl)-N-(2-methoxypyridin-4-yl)-2-oxoacetamide] | 0.1 to 1 |  |  |
| COc1cc(NC(=O)C(=O)c2c(C)n(Cc3ccc(Cl)cn3)c3cc(C)c(OC)cc23)ccn1 [Compound 95, 2-(1-((5-chloropyridin-2-yl)methyl)-5-methoxy-2,6-dimethyl-1H-indol-3-yl)-N-(2-methoxypyridin-4-yl)-2-oxoacetamide] | < 0.1 |  |  |
| COc1ccc2c(c1)c(C(=O)C(=O)Nc1ccnc(OC)c1)c(C)n2Cc1ncc(Cl)cc1OC [Compound 100, 2-(1-((5-chloro-3-methoxypyridin-2-yl)methyl)-5-methoxy-2-methyl-1H-indol-3-yl)-N-(2-methoxypyridin-4-yl)-2-oxoacetamide] | 0.1 to 1 | < 25 | < 25 |
